Among the data in PubChem BioAssay AID330 (DTP/NCI, 2004) are T/C values, retold here.

The assay has as its system P388 leukemia ip, CD2F1 mice, survival T/C. Description: NCI In Vivo Anticancer Drug Screen. Data for tumor model P388 Leukemia (intraperitoneal) in CD2F1 (CDF1) mice. The settings on record: endpoint: median survival time, higher = longer survival. In a few lines:
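Mice carrying the transplanted tumor received test compound or vehicle. Survival was recorded in each group, and the value is the treated-group measurement divided by that of the vehicle-treated control group.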

Setting [1] is: dose: 50.0 mg/kg/injection, schedule: Q01DX001 (ip), vehicle: Klucel (hydroxypropylcellulose) (HPC).
The mark [2] stands for this setting: dose: 100.0 mg/kg/injection, schedule: Q01DX001 (ip), vehicle: Klucel (hydroxypropylcellulose) (HPC).
Setting [3] is: dose: 200.0 mg/kg/injection, schedule: Q01DX001 (ip), vehicle: Klucel (hydroxypropylcellulose) (HPC).
Where [4] appears, read: dose: 60.0 mg/kg/injection, schedule: Q01DX005 (ip), vehicle: saline with Tween-80.
[5] abbreviates: dose: 120.0 mg/kg/injection, schedule: Q01DX005 (ip), vehicle: saline with Tween-80.
The mark [6] stands for this setting: dose: 240.0 mg/kg/injection, schedule: Q01DX005 (ip), vehicle: saline with Tween-80.
Setting [7] is: dose: 12.5 mg/kg/injection, schedule: Q01DX005 (ip), vehicle: Klucel (hydroxypropylcellulose) (HPC).
Setting [8] is: dose: 25.0 mg/kg/injection, schedule: Q01DX005 (ip), vehicle: Klucel (hydroxypropylcellulose) (HPC).
The mark [9] stands for this setting: dose: 50.0 mg/kg/injection, schedule: Q01DX005 (ip), vehicle: Klucel (hydroxypropylcellulose) (HPC).

Where “and” joins values, the source holds several entries; their conditions need not be identical. Equal values may be shown once. Inconclusive results and toxic doses are left out.

On to `COc1cc2c(cc1C(C)c1ccc(OCc3ccccc3)cc1)OCO2` (configuration not stated), for which the T/C runs as follows: (dose: 25.0 mg/kg/injection, schedule: Q01DX005 (ip), vehicle: distilled water + Tween-80) 99 % of control; (dose: 50.0 mg/kg/injection, schedule: Q01DX005 (ip), vehicle: distilled water + Tween-80) 98 % of control; (dose: 100.0 mg/kg/injection, schedule: Q01DX005 (ip), vehicle: distilled water + Tween-80) 90 % of control and 94 % of control; (dose: 200.0 mg/kg/injection, schedule: Q01DX005 (ip), vehicle: distilled water + Tween-80) 90 % of control and 91 % of control.
Regarding `O=C(NC(=S)c1ccccc1)Nc1ccc(Cl)c(Cl)c1`, the T/C is, setting by setting: (dose: 8.0 mg/kg/injection, schedule: Q01DX009 (ip), vehicle: saline with Tween-80) 100 % of control; (dose: 16.0 mg/kg/injection, schedule: Q01DX009 (ip), vehicle: saline with Tween-80) 99 % of control; (dose: 32.0 mg/kg/injection, schedule: Q01DX009 (ip), vehicle: saline with Tween-80) 87 % of control.
As to `COc1cc2c(c(OC)c1OC)-c1ccc(SC)c(=O)cc1[C@@H](NC1OC(COC(C)=O)C(OC(C)=O)C(OC(C)=O)C1OC(C)=O)CC2` (some centres not stated), the T/C is, setting by setting: (dose: 0.75 mg/kg/injection, schedule: Q01DX009 (ip), vehicle: other) 97 % of control; (dose: 1.5 mg/kg/injection, schedule: Q01DX009 (ip), vehicle: other) 97 % of control; (dose: 3.0 mg/kg/injection, schedule: Q01DX009 (ip), vehicle: other) 102 % of control; (dose: 6.0 mg/kg/injection, schedule: Q01DX009 (ip), vehicle: other) 107 % of control; (dose: 12.0 mg/kg/injection, schedule: Q01DX009 (ip), vehicle: other) 117 % of control; (dose: 24.0 mg/kg/injection, schedule: Q01DX009 (ip), vehicle: other) 120 % of control. Further, the T/C (dose: 192.0 mg/kg/injection, schedule: Q01DX009 (ip), vehicle: other) was 150 % of control.
Take `COc1ccc(N=Cc2ccc(C(N)=S)cc2)cc1`: the T/C runs as follows: under setting [1], 107 % of control; under setting [2], 102 % of control; under setting [3], 98 % of control.
The matching figures for `Cc1ccc(S(=O)(=O)N/N=C/c2c(Cl)n(C(=O)c3cccc(C)c3)c3ccccc23)cc1`: 97 % of control, 90 % of control and 87 % of control.
Regarding `NC(CCC(=O)OCCn1c2ccccc2c2ccccc21)C(=O)O` (configuration not stated), the T/C is 97 % of control (dose: 25.0 mg/kg/injection, schedule: Q01DX009 (ip), vehicle: saline with Tween-80); 93 % of control (dose: 50.0 mg/kg/injection, schedule: Q01DX009 (ip), vehicle: saline with Tween-80); 97 % of control (dose: 100.0 mg/kg/injection, schedule: Q01DX009 (ip), vehicle: saline with Tween-80).
For `CCN(CC)CCNC(=O)Cc1cc(O)c2c(c1O)C(=O)c1ccccc1C2=O`, the T/C (dose: 100.0 mg/kg/injection, schedule: Q04DX003 (ip), vehicle: saline with Tween-80) is 106 % of control; the T/C (dose: 200.0 mg/kg/injection, schedule: Q04DX003 (ip), vehicle: saline with Tween-80) was 106 % of control; the T/C (dose: 400.0 mg/kg/injection, schedule: Q04DX003 (ip), vehicle: saline with Tween-80) was 106 % of control.
On to `CCc1nc(N)nc(-c2nc(N)nc(CC)c2C)c1C`, for which the T/C is, setting by setting: (dose: 60.0 mg/kg/injection, schedule: Q01DX005 (ip), vehicle: saline) 106 % of control; (dose: 120.0 mg/kg/injection, schedule: Q01DX005 (ip), vehicle: saline) 104 % of control; (dose: 240.0 mg/kg/injection, schedule: Q01DX005 (ip), vehicle: saline) 108 % of control.
Turning to `CC(C)=CCC(OC(=O)C=C(C)C)C1=CC(=O)c2c(O)ccc(O)c2C1=O` (configuration not stated), the T/C is 108 % of control (dose: 1.56 mg/kg/injection, schedule: Q01DX009 (ip), vehicle: water); 107 % of control (dose: 3.12 mg/kg/injection, schedule: Q01DX009 (ip), vehicle: water); 117 % of control (dose: 6.25 mg/kg/injection, schedule: Q01DX009 (ip), vehicle: water); 110 % of control (dose: 10.0 mg/kg/injection, schedule: Q01DX009 (ip), vehicle: saline with Tween-80); 109 % of control (dose: 10.0 mg/kg/injection, schedule: Q04DX003 (ip), vehicle: saline with Tween-80); 119 % of control (dose: 12.5 mg/kg/injection, schedule: Q01DX009 (ip), vehicle: water). Besides, the T/C (dose: 20.0 mg/kg/injection, schedule: Q01DX009 (ip), vehicle: saline with Tween-80) was 110 % of control; the T/C (dose: 20.0 mg/kg/injection, schedule: Q04DX003 (ip), vehicle: saline with Tween-80) was 90 % of control; the T/C (dose: 40.0 mg/kg/injection, schedule: Q04DX003 (ip), vehicle: saline with Tween-80) was 104 % of control.
As for `O=c1[nH]c(=O)c2cc(Cl)cc(Cl)c2[nH]1`, the T/C is 90 % of control (dose: 50.0 mg/kg/injection, schedule: Q01DX001 (ip), vehicle: saline with Tween-80); 90 % of control (dose: 100.0 mg/kg/injection, schedule: Q01DX001 (ip), vehicle: saline with Tween-80); 90 % of control (dose: 200.0 mg/kg/injection, schedule: Q01DX001 (ip), vehicle: saline with Tween-80).
As to `O`, the T/C runs as follows: (dose: 0.01 % in 0.5 ml injection vol, schedule: Q01DX009 (ip), vehicle: water) 92 % of control; (dose: 0.02 % in 0.5 ml injection vol, schedule: Q01DX009 (ip), vehicle: water) 100 % of control and 95 % of control; (dose: 0.04 % in 0.5 ml injection vol, schedule: Q01DX009 (ip), vehicle: water) 105 % of control; (dose: 0.08 % in 0.5 ml injection vol, schedule: Q01DX009 (ip), vehicle: water) 100 % of control; (dose: 100.0 mg/kg/injection, schedule: Q01DX009 (ip), vehicle: acetone) 95 % of control; (dose: 200.0 mg/kg/injection, schedule: Q01DX009 (ip), vehicle: acetone) 90 % of control. In addition, the T/C (dose: 400.0 mg/kg/injection, schedule: Q01DX009 (ip), vehicle: acetone) was 100 % of control; the T/C (dose: 1:0.5 dilution, schedule: Q01DX005 (ip), vehicle: none) was 112 % of control; the T/C (dose: 1:1.0 dilution, schedule: Q01DX005 (ip), vehicle: none) was 100 % of control; the T/C (dose: 1:2.0 dilution, schedule: Q01DX005 (ip), vehicle: none) was 114 % of control.
`CC(=O)Nc1ccc(S(=O)(=O)N/N=C/c2cc([N+](=O)[O-])cc(I)c2O)cc1`: the T/C reads like this: under setting [4], 93 % of control; under setting [5], 97 % of control; under setting [6], 103 % of control.
`CC(=O)O/N=C/c1ccccn1`: the T/C is, setting by setting: (dose: 25.0 mg/kg/injection, schedule: Q04DX003 (ip), vehicle: saline) 94 % of control; (dose: 50.0 mg/kg/injection, schedule: Q04DX003 (ip), vehicle: saline) 89 % of control and 94 % of control; (dose: 100.0 mg/kg/injection, schedule: Q04DX003 (ip), vehicle: saline) 100 % of control; (dose: 200.0 mg/kg/injection, schedule: Q04DX003 (ip), vehicle: saline) 98 % of control and 100 % of control.
Regarding `S=C1CCCCCN1`, the T/C by setting is: under setting [7], 107 % of control; under setting [8], 100 % of control; under setting [9], 103 % of control and 104 % of control.
Take `Cc1ccc(/C=N/NC(=O)C(=O)Nc2ccc(Cl)c([N+](=O)[O-])c2)cc1`: the T/C was 88 % of control (dose: 6.25 mg/kg/injection, schedule: Q01DX005 (ip), vehicle: saline with Tween-80) and 95 % of control (dose: 12.5 mg/kg/injection, schedule: Q01DX005 (ip), vehicle: saline with Tween-80).
For the molecule `Cc1ccc(N2C(=O)C3CSCN3C2=O)cc1` (configuration not stated), the T/C is, setting by setting: under setting [4], 101 % of control; under setting [5], 97 % of control; under setting [6], 92 % of control.
On to `Cc1cc(N/N=C/c2ccccn2)c2cc3c(cc2n1)OCO3`, for which the T/C is, setting by setting: under setting [7], 103 % of control; under setting [8], 104 % of control; under setting [9], 101 % of control and 104 % of control.
Turning to `O=C1c2cc(O)c(O)cc2C(=O)c2cc3c(cc21)OCO3`, the T/C runs as follows: under setting [4], 97 % of control; under setting [5], 90 % of control; under setting [6], 90 % of control.
